In series [1] the test system is LSK cells. Briefly: Colony assay of Lin−Sca1+c-Kit+ (LSK) cells from wildtype mice. Type of series: cell-based. On the procedure: FIG. 5A-5F. PU.1 inhibitors decrease the granulo-monocytic potential of hematopoietic stem and progenitor cells, which is rapidly reversible. (A-C) Lin-Sca1+c-Kit+(LSK) cells were plated in semi-solid media containing PU.1 inhibitors. (A) Number of colony-forming unit granulocyte (CFU-G), monocyte (CFU-M), granulo/monocyte (CFU-GM), granulo/erythrocyte/monocyte/megakaryocyte (CFU-GEMM), burst or colony forming unit erythroid (B/CFU-E) and immature colonies after treatment. Detailed histograms of CFU-GM, CFU-G and CFU-M numbers are shown. Data represent the means±SD of 3 independent experiments. (B) Cells coming from colony assays after vehicle or DB2313 treatment. Cells were cytospun and stained with May-Grünwald Giemsa. Scale bar is equal to 20 μm. (C) FACS analysis showing the percentage of CD11b+Gr1−, CD11b+Gr1+, CD11b−Gr1+, CD41+Ter119−, CD41+Ter119+, CD41−Ter119+ populations after colony assays. Data represent the means±SD of 4 independent experiments. (D,E) Cells coming from colony assays treated with DB2313 were replated in the presence (+DB2313) or in the absence of DB2313 (−DB2313) and the percentage of CD11b+Gr1−, CD11b+Gr1+ cells was assessed one week later after culture in semi-solid media. (D) Representative FACS plots (E) Percentage of CD11b+Gr1− and CD11b+Gr1+ populations. Data represent the means±SD of 3 independent experiments; fold change compared to replating with DB2313 is shown. (F) Serial replating assay with D2313 continuous treatment (n=3). Data represent the means±SD of technical triplicate from one representative experiment. *P<0.05, **P<0.01, ***P<0.001,
In order to determine the effect of our PU.1 inhibitors on normal hematopoietic differentiation, we sorted immature Lin^−Sca1^+c-Kit^+ (LSK) cells from wildtype mice and studied their clonogenic potential following treatment with either DB1976, DB2115, or DB2313. […] Overall, the numbers of viable cells per colony were reduced upon PU.1 inhibitor treatment, again consistent with an effect of PU.1 inhibition on more mature, differentiating cells. […]

The subject of series [2] is PU.1 targets Csf1r, Junb, PU.1, E2f1. Briefly: Quantitative RT-PCR of PU.1 target transcripts in PU.1 URE−/− AML cells. It counts as cell-based, murine. On the procedure:
FIG. 3A-3G. Novel inhibitors show on-target PU.1 inhibitory activity. (A) Quantitative RT-PCR analysis of Csf1r, Junb, Sfpi1, E2f1 expression after 72 h (n=6) and, for Csf1r, after 1 h (n=3), 4 h (n=7), 8 h (n=3) and 24 h (n=3) of treatment with the small molecules in URE−/− cells, expression is normalized to GAPDH expression. Data represent means±SD of technical triplicate from one representative experiment; fold change compared to Vehicle is shown. (B) Chromatin immunoprecipitation assay showing PU.1 occupancy on E2f1, Junb, Csf1r promoters after treatment in Umsh cell line (n=5). 10·10^6 cells were collected for each condition after 8 h treatment with a double dose of the small molecules (50 uM for DB1976, 1.4 uM for DB2115 and 660 nM for DB2313) or Vehicle; and processed for ChIP using PU.1 monoclonal antibody. Myogenin was used as a negative control, not regulated by PU.1. Data represent means±SD of technical triplicate from one representative experiment. (C) Cell viability after PU.1 rescue in MOLM13 cells. MOLM13 were transduced with a lentiviral construct expressing either PU.1-GFP (PU.1, black bar) or GFP as a control (empty, white bar), sorted on GFP and plated with DB1976 (n=7), DB2115 (n=8), DB2313 (n=6) or Vehicle. Cell count was performed after 4 days. Data represent means±SD of technical triplicate from one representative experiment; fold change compared to Vehicle is shown. (D-G) Transcriptome analysis of URE−/− cells after 24 h of treatment with DB2313 versus vehicle (n=3). Differentially expressed genes were determined with a fold change at 1.2 and a P value <0.1. (D) Enrichment in genes directly regulated by PU.1 or in genes regulated by the other ETS transcription factors Ets1, Gabpa, Spi-B, Fli-1, using Ingenuity Knowledge Base. The red dotted line represents the significance threshold (−log (P value)>1.3). (E,F) Comparison analysis of deregulated genes in URE−/− cells after DB2313 treatment and in PUER cells after PU.1 induction (GSE13125). Deregulated gens in PUER cells were analyzed with a FC at 1.5 and P-value <0.05. (E) Significant overlap between the 2 datasets, with 484 genes commonly deregulated. P-value was calculated using the hypergeometric test. (F) Comparative analysis of deregulated canonical pathways between the 2 datasets (z-score >2 for PUER dataset). Colored squares indicate activation z-score. (G) Enrichment of PU.1 binding at promoters of all, up- and down-deregulated genes after DB2313 treatment. […]
To assess on-target activity of our inhibitors in AML cells, we measured transcript levels of well-known PU.1 targets in PU.1 URE^−/− AML cells. […] As Csf1r is one of the most sensitive PU.1 targets in myeloid cells, we assessed its expression at different time points (1 h, 4 h, 8 h and 24 h) after drug treatment. […]

The mark [3] stands for this setting: second plating, vs replating with compound.

Counter-ions that a name gives are not always drawn.

In the case of `N=C(N)c1ccc2nc(-c3ccc(-c4nc5ccc(C(=N)N)cc5[nH]4)[se]3)[nH]c2c1` [DB1976], in series [1] (majority of colonies unidentifiable, majority of dead cells), the “toxicity on LSK cells” value was “appeared to show toxicity”.

With `N=C(N)c1ccc2nc(-c3ccc(OCCCCOc4ccc(-c5nc6ccc(C(=N)N)cc6[nH]5)cc4)cc3)[nH]c2c1` [DB2115], in series [2], the “Csf1r, Junb, and PU.1 transcript expression” value is “decrease”; the E2f1 expression entry was “increase”.

In the case of `CC(C)NC(=N)c1ccc2nc(-c3ccc(OCc4cccc(COc5ccc(-c6nc7ccc(C(=N)NC(C)C)cc7[nH]6)cc5)c4F)cc3)[nH]c2c1` [DB2313, 3-Bis{4[4(5)-N-isopropylamidinobenzimidazolyl]phenoxymethyl]}-2-fluorobenzene tetrahydrochloride], in series [2], the “Csf1r, Junb, and PU.1 transcript expression” value is listed as “decrease”; the E2f1 expression result is listed as “increase”. In addition, in series [1] (setting [3]), the “increase of production of mature granulocytes after removing the treatment” value came out at 4 fold and the “increase of production of mature monocytes after removing the treatment” value amounted to 22 fold.

Values taken from patent US10774049B2, “PU.1 inhibitors” (Albert Einstein College of Medicine, priority 2016, dated 2020).
